# Source: patent US20240189278A1, “NOVEL COMPOUNDS AND METHODS FOR INCREASING KLOTHO GENE EXPRESSION” (Klotho Therapeutics, Inc., priority 2017, published 2024)
# How the values were obtained:
# elastin = test: Elastin in aortas of aged mice (immunostaining and western blot); assay type: in vivo, mouse
# Description: Animal study protocols. This example was performed according to the guide lines of the National Institute of Health on the care and use of laboratory animals and approved by the institutional Animal Care and Use Committee of University of Oklahoma Health Science Center. AU mice were housed in cages at room temperature (2S±PC) and were provided with Purina laboratory chow No 5001) and tap Water and lithium. 6 adult mice (12 months) and 20 old mice (24-26 months) mice were next in this study. The old (aged) mice were randomly divided into three subgroups and each group had 6 or 7 mice. […] The third group received no treatment Blood pressure was measured before and after treatment with the active agent at 1 week and 2 week. Pulse wave velocity (PWV) was measured after 2 weeks treatment with active agent all animals were sacrificed and perfused transcardially with PBS under deep anesthesia (ketamine xylazine, 90/10 mg, IP). […]
# Histological and Immunohistochemical Staining: Thoracic aortas were quickly excised and placed in cold (4′T) physiological saline solution. […] Aorta rings were post-fixed in 4% paraformaldehyde, embedded in paraffin and sectioned at […] thickness, Collagen was quantified by Masson' s trichrome staining as described previously. […] Blue-stained collagen areas were quantified with ImageJ (NIH, Bethesda, USA) film 4-5 regions per section. […]
# TGF-β1 = test: Western blot of TGF-β1, aortas of aged mice; assay type: in vivo, mouse
# Description: Animal study protocols. This example was performed according to the guide lines of the National Institute of Health on the care and use of laboratory animals and approved by the institutional Animal Care and Use Committee of University of Oklahoma Health Science Center. AU mice were housed in cages at room temperature (2S±PC) and were provided with Purina laboratory chow No 5001) and tap Water and lithium. 6 adult mice (12 months) and 20 old mice (24-26 months) mice were next in this study. The old (aged) mice were randomly divided into three subgroups and each group had 6 or 7 mice. One subgroup received compound H (10 mg/kg/day1, IP, Enamine LLC, Monmouth Jct., NJ) and one group received an equal volume of DMSO (dimethyl sulfoxide, 5%) and served as a control. The third group received no treatment Blood pressure was measured before and after treatment with the active agent at 1 week and 2 week. Pulse wave velocity (PWV) was measured after 2 weeks treatment with active agent all animals were sacrificed and perfused transcardially with PBS under deep anesthesia (ketamine xylazine, 90/10 mg, IP). […]
# Western Blot Analysis: Protein samples from the thoracic aorta were prepared in Lysis buffer as described previously. […] Protein abundance on western blots was quantified densitometry using Image lab software (Bio-Rad, Hercules, CA).
# LC3 = test: Western blot of LC3 in aortas, hearts and kidneys of old mice; assay type: in vivo, mouse
# [1] = test system: mouse vascular aortic smooth muscle cells (MOVAS); test: Western blot of treated MOVAS cells; assay type: cell-based; details: 10 μM active agent, 16 h
# Description: After cells confluent, the media were switched to DMEM with or without 2° A1 serum, and the cells were then treated with 10 μM active agent or 5 nM secreted Klotho for another 16 h then harvested for western blot analysis.
# Western Blot Analysis: Protein samples from the thoracic aorta were prepared in Lysis buffer as described previously. The proteins ([…] were resolved by SOS-PAGE and transferred to a nitrocellulose membrane (Bio-Rad). The membrane was then incubated overnight (4° C.) with a primary antibody against collagen-1-elastin. M1′v1P2; MMP9, ALP (Abeam1 1:1000), TGF-1, TGF˜N3 (Santa Cmz, 1:100). RUX2, or aNTulmliu (Cell Signaling. 1:1000). Goat autimouse or goat anti rabbit horseradish peroxidase (1:2000 . . . 1:5,000; Santa Cruz Biotechnology) was used as a secondary antibody find incubated for 1 hour at room temperature. Specific proteins were detected by chemiluminescent methods using Amersham™ western blotting detection reagents (GE Healthcare, UK). Protein abundance on western blots was quantified densitometry using Image lab software (Bio-Rad, Hercules, CA).
structure (smiles),measurement,setting,value
"O=C(Nc1ccccc1Cl)c1c[nH]c2ccccc12 [active agent, N-(2-chlorophenyl)-Ul-indde-3-carboxamide]",Elastin production,elastin,increased
same,TGF-β1 expression,TGF-β1,decreased
same,LC3 expression,LC3; aortas of old mice,did not affect
same,LC3 expression,LC3; hearts of old mice,did not affect
same,LC3 expression,LC3; kidneys of old mice,did not affect
same,MMP2 expression,[1]; Klotho free medium (KL(−)),did not affect
same,MMP9 expression,[1]; Klotho free medium (KL(−)),did not affect
same,TGFβ1 expression,[1]; Klotho free medium (KL(−)),did not affect
same,TGFβ3 expression,[1]; Klotho free medium (KL(−)),did not affect
same,MMP2 expression,[1]; regular medium,did not change
same,MMP9 expression,[1]; regular medium,did not change
same,TGFβ1 expression,[1]; regular medium,did not change
same,TGFβ3 expression,[1]; regular medium,did not change
